This passage reports EC50 and Emax results from patent publication US20230174523A1, “BENZENESULFONAMIDE DERIVATIVES AS TRAP1 MODULATORS AND USES THEREOF” (Amathus Therapeutics, Inc., priority 2020, published 2023).

For this test, the target named is T1, TRAP1 enzyme (Homo sapiens, UniProt Q12931).
T1 sequence (Q12931 60-704): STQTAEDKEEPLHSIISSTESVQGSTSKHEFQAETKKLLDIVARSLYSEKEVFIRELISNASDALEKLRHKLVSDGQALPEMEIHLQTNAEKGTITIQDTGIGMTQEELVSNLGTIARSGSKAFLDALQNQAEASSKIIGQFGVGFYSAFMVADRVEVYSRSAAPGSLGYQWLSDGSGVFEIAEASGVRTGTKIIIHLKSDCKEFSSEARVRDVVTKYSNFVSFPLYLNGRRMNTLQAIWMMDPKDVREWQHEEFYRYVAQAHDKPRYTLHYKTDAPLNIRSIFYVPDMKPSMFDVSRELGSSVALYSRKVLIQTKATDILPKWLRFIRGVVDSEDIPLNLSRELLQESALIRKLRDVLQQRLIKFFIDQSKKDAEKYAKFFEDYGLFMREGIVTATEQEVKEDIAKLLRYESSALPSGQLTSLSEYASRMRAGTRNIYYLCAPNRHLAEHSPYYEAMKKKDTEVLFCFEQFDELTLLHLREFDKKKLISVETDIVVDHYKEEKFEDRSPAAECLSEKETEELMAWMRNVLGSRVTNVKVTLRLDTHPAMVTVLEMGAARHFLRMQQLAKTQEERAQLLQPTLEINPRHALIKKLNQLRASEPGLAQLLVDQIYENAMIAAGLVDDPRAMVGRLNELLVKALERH
The test is described as follows: Malachite green phosphate assay of TRAP1 ATPase activity. To be noted: for EC50: TRAP1 ATPase activation, 150 nM Trap1, 20 μM ATP, geometric mean, read-out: Malachite Green Fluor DRC: GeoMean EC50; for Emax: read-out: Malachite Green Fluor DRC: Mean Emax. In kind it is biochemical. The procedure:
The Potency of test compounds to modulate the ATPase activity of TRAP1 enzyme was evaluated using malachite green phosphatase assay. The assay is based on quantification of the green complex formed between Malachite Green, molybdate and inorganic phosphate generated in the phosphatase reaction. Assays were performed using a Malachite Green assay kit. All the assays were carried out in a 96-well transparent plate. The buffer used was 50 mM HEPES (pH 7.5), 20 mM KCl, 4 mM MgCl2 and 0.05% BSA. 150 nM Trap1 enzyme was incubated with various concentrations of the test compound (0.78 μM-100 μM) at 37° C. for 30 mins. 20 μM ATP was added to each well (except blank wells) to start the reaction and the plate was then incubated at 37° C. for 180 mins. 10 μl of the reaction volume of each sample was then transferred to a white 384-well proxiplate in quadruplets. 2.5 μl of Malachite Green reagent was added to all the wells and the plate was equilibrated for 15 mins. The reaction was stopped by adding 12% H2SO4 and the plate was read for fluorescence at 620 nm (λex=573 nm). The amount of phosphate released was estimated from a phosphate standard curve generated at the same experimental conditions. Emax (Maximal percent activation) and EC50 (concentration of test compound for half maximal activation) were estimated by fitting the dose response data to a sigmoidal curve fitting equation using Graphpad Prism software V.7.0.

Turning to `COc1ccc(NC(=O)c2ncco2)cc1S(=O)(=O)N(CCCCCC[P+](c1ccccc1)(c1ccccc1)c1ccccc1)c1ccc(Br)cc1` [Compound 259], the EC50 is < 10 µM and the Emax is > 300%.

Take `COc1ccc(NC(=O)c2cnc(C(F)(F)F)[nH]2)cc1S(=O)(=O)N(CCCCCC[P+](c1ccccc1)(c1ccccc1)c1ccccc1)c1ccc(Br)cc1` [Compound 260]: the 50% effective concentration (EC50) is < 10 µM and the maximum response (Emax) is 160 to 199%.

Turning to `COc1ccc(NC(=O)c2cnc(C(F)(F)F)[nH]2)cc1S(=O)(=O)N(CCCCCCBr)c1ccc(Br)cc1` [Compound 262], the EC50 fell in the range of 10 to 20 µM and the maximal response (Emax) fell in the range of 200 to 300%.

Take `CCOC(=O)CCCCCN(c1ccc(Br)cc1)S(=O)(=O)c1cc(NC(=O)c2cnc(C(F)(F)F)[nH]2)ccc1OC` [Compound 263]: the EC50 was in the range of 10 to 20 µM and the Emax is 160 to 199%.

As for `COc1ccc(NC(=O)c2cnc(C(F)(F)F)[nH]2)cc1S(=O)(=O)N(CCCCCC(=O)O)c1ccc(Br)cc1` [Compound 264], the EC50 was 10 to 20 µM and the Emax lay within 160 to 199%.

With `COc1ccc(NC(=O)c2cnc[nH]2)cc1S(=O)(=O)N(CCCCCCN)c1ccc(Br)cc1` [Compound 266, N-(3-(N-(6-aminohexyl)-N-(4-bromophenyl)sulfamoyl)-4-methoxyphenyl)-1H-imidazole-5-carboxamide], the EC50 was < 10 µM and the Emax lay in the range of 160 to 199%.

For the compound `CCc1ccc(NC(=O)c2cnc(C(F)(F)F)[nH]2)cc1S(=O)(=O)Nc1ccc(C)cc1` [Compound 270], the EC50 was in the range of 10 to 20 µM and the Emax lay in the range of 200 to 300%.

As to `Cc1ccc(NS(=O)(=O)c2cccc(NC(=O)c3cnc(C(F)(F)F)[nH]3)c2)cc1` [Compound 271], the 50% effective concentration (EC50) lay within 10 to 20 µM and the Emax lay within 160 to 199%.

As to `O=C(Nc1ccc(OCCCCCCO)c(S(=O)(=O)Nc2ccc(Br)cc2)c1)c1cnc[nH]1` [Compound 274], the EC50 lay in the range of 10 to 20 µM and the Emax was 200 to 300%.

As for `CCc1ccc(NC(=O)c2cnccc2C)cc1S(=O)(=O)Nc1ccc(C)cc1` [Compound 277], the EC50 lay within 10 to 20 µM and the maximal response (Emax) was 123 to 159%.

Take `Cc1ccc(NS(=O)(=O)c2cc(NC(=O)c3cnc(C(F)(F)F)[nH]3)ccc2F)cc1` [Compound 278]: the EC50 lay within 10 to 20 µM and the Emax lay within 160 to 199%.

Turning to `COc1ccc(NC(=O)c2cnc[nH]2)cc1S(=O)(=O)N(CCOCCOCCBr)c1ccc(Br)cc1` [Compound 286], the EC50 is < 10 µM and the Emax fell in the range of 160 to 199%.

As to `COc1ccc(NC(=O)c2cnc[nH]2)cc1S(=O)(=O)N(CCOCCOCC[P+](c1ccccc1)(c1ccccc1)c1ccccc1)c1ccc(Br)cc1` [Compound 296], the EC50 is < 10 µM and the Emax was 200 to 300%.

In the case of `COc1ccc(NC(=O)c2ocnc2C)cc1S(=O)(=O)Nc1ccc(Br)cc1` [Compound 299], the EC50 was 20 to 100 µM and the Emax fell in the range of 160 to 199%.

On to `O=C(Nc1cccc(S(=O)(=O)Nc2ccc(Br)cc2)c1)c1ncco1` [Compound 302], for which the EC50 lay in the range of 20 to 100 µM and the Emax is 160 to 199%.

Turning to `CCCN(c1ccc(Br)cc1)S(=O)(=O)c1cccc(NC(=O)c2ncco2)c1` [Compound 303], the EC50 lay within 10 to 20 µM and the Emax was 160 to 199%.

Consider `COc1ccc(NC(=O)c2nccs2)cc1S(=O)(=O)Nc1ccc(Br)cc1` [Compound 304], for which the EC50 is 10 to 20 µM and the Emax was in the range of 200 to 300%.

As to `COc1ccc(NC(=O)c2ncco2)cc1S(=O)(=O)Nc1ccc(C)cc1` [Compound 307], the EC50 lay in the range of 20 to 100 µM and the Emax was in the range of 160 to 199%.

Consider `COc1ccc(NC(=O)c2ncco2)cc1S(=O)(=O)N1CCOCC1` [Compound 309], for which the EC50 lay in the range of 20 to 100 µM and the Emax lay in the range of 123 to 159%.

As to `O=C(Nc1ccc(F)c(S(=O)(=O)Nc2ccc(F)cc2)c1)c1ncco1` [Compound 314], the EC50 lay within 20 to 100 µM and the Emax was in the range of 123 to 159%.

What is called EC50 is the concentration at which the effect is half-maximal. For orientation: Emax means the maximal effect, on the per cent scale that the assay sets.
